Experimental findings from US20120070377A1, “COMPOUNDS AND BIOLOGICAL MATERIALS AND USES THEREOF” (priority 2009, published 2012) are described below.

What is called IC50 is the concentration at which inhibition is half-maximal.

One series deals with KB. The series is described as follows: In vitro phototoxicity (MTS cell titre assay after 670 nm laser light), Example 5. The following applies: Homo sapiens, KB; free photosensitisers; 2 hrs incubation, 670 nm laser 0.5 W 10 s, MTS after 48 h. It counts as cell-based, human. Here is the method: (§1) Two different human-derived tumour cell lines: SKOV3 and KB were obtained from the European Collection of Cell Cultures (ECACC) and cultured in Dulbecco's modified Eagle's medium (DMEM) with 10% foetal bovine serum, penicillin and streptomycin antibiotics (1%) and passaged when 70-90% confluent in 75 cm^2 flasks. The cells were maintained at 37° C. in a humidified 5% CO2 atmosphere.
(§2) Cells were trypsinised and seeded at 2×10^3 cells/well for KB and 3×10^3 cells/well for SKOV3 into 96-well plates and incubated over two nights for KB and overnight for SKOV3 at 37° C. and 5% CO2. The cells were then washed once in phenol red free DMEM and appropriately diluted photosensitiser solution or photo-immunoconjugate (in DMEM, 2% DMSO) was added to the appropriate wells under subdued lighting. DMEM or Triton X-100 (1%) were added to control wells. After 2 hrs incubation in the dark at 37° C., 5% CO2, cells were washed three times with PBS and 100 μl of DMEM was added to each well.
(§3) Wells were exposed to light from a High Powered-Devices 670 nm laser used at 0.5 W for 10 s. Controls included wells with photosensitiser added and no exposure to light, or DMEM added and exposure to light as well as Triton X-100 (1%) with or without light exposure. Cells that had no photosensitiser added and no exposure to light were included as overall controls. Cells were incubated in the dark at 37° C., 5% CO2 for 48 h after which time, a cell titre assay was performed according to the manufacturer's instructions. The Promega Cell Titre-96 system was used which involves the conversion by live cells of a tetrazolium compound (MTS) into a formazan dye which is measurable by its absorbance at 490 nm.

For a further series, the system named is SKOV3. The series is described as above. In kind it is cell-based, human. Conditions: Homo sapiens, SK-OV-3; free photosensitisers; 2 hrs incubation, 670 nm laser 0.5 W 10 s, MTS after 48 h. Here is the method: as §1, §2, §3
The nature of series [1]: Biodistribution and blood clearance of 125I-radiolabelled photosensitisers and PICs in SKOV3 tumour mice. Conditions: mouse, in vivo, iv. In kind it is in vivo, BALB/c nude mice. Here is the method:
0.1 mg of photosensitiser was dissolved in 0.5 ml PBS. Radiolabelled Iodine (Na^125I, ICN chemicals) was added to 0.1 ml of PBS in Iodogen-coated tubes (Pierce chemicals) and allowed to activate. The activated iodine-125 was transferred to the photosensitiser and allowed to react for 5-10 minutes at room temperature. The radiolabelled photosensitiser was separated from free iodine on a mini silica gel column eluting with 100% PBS to remove the iodinating agent followed by a gradual switch from 10% MeOH/PBS to 100% MeOH with the radiolabelled photosenstiser eluting with 10% MeOH/chloroform. The radiolabelled solutions of the photosensitiser was allowed to air-dry and re-suspended in PBS containing 2% DMSO.
(§4) Female BALB/c nude mice (aged 6-8 weeks old) were implanted with 10^7 SKOV3 tumour cells mixed in 0.1 ml of ice-cold matrigel subcutaneously and the tumours were allowed to grow for 3-6 weeks as xenografts. Mice were maintained in IVC cages (individually-vented cages) in a clean room. Samples were injected in a volume of 0.1 ml, intravenously via the lateral tail vein and the mice were maintained in low light with full food and water (irradiated). At various time points (1-24 hr), mice were culled by cardiac puncture under terminal anesthesia and blood and tissues collected. All the tissues were counted for radioactivity by gamma counting and weighed.
The results are shown as a percentage of radioactive material injected per gram of tissue.
(§5) The PS (PPa and PPa-PEG) were chemically coupled to C6 scFv, radiolabelled with iodogen as before, but dialysed against 3×5 L of PBS to remove the free iodine and injected into BALB/c nude mice with SKOV3 tumours as above. Tissues were dissected and counted as above.

The test system of a further series is SKOV3 tumour. The series is described as follows: Tumour uptake and tumour:blood ratio of radiolabelled photosensitisers and PICs. In kind it is in vivo, BALB/c nude mice. Conditions: mouse, in vivo. The protocol: as §4, §5
The tumours were counted for radioactivity and expressed as % of the injected dose/g of tumour tissue (FIG. 10).
The percentage PS in the tumour was divided by the percentage in the blood (gram for gram) to give a targeting or tumour:blood ratio (the higher the better). This plotted in FIG. 11. A high tumour:blood ratio means that there is more in the tumour compared to the blood (and other tissues). This is a function of tumour uptake and blood clearance (see FIGS. 9 and 10).

For the next series, the system named is SKOV3 tumours. The series is described as follows: PDT therapy in SKOV3 tumour mice. In kind it is in vivo, BALB/c nude mice. The protocol:
as §4
Tumours were set up as described above and injected (iv into the mouse tail vein) with 0.2 ml of free PPa-PEG1 (0.1 mg=33 micromolar concentration) PS on day 1 and day 4. Based on the tumour uptake (see FIG. 10), an HPD laser was used to illuminate the tumours for 20 minutes at 0.5 W after 4 hrs. The mice were anaesthetized beforehand. Laser treatment followed each drug cycle. The tumours were followed for 3 weeks and the % increase in tumour size was plotted (day 0=100%) (see FIG. 12).
Tumours (groups of 6 mice) were set up as described above and injected (iv into the mouse tail vein) with 0.2 ml of C6-PPa-PEG PIC or free PPa-PEG1 PS (1 mg/ml PIC=33 micomolar concentration scFv or 330 micromolar PPa-PEG) on day 1 and day 4. […]

A short description of series [2]: Skin photosensitivity in a murine model. In kind it is in vivo. Conditions: laser on the skin after 1 hour, monitored over 4 days, scale of 1-4. Here is the method: FIG. 24: Skin photosensitivity of Foscan compared to compound II. Photosensitisers were administered at t=0 hrs and a laser shone on the skin after 1 hour. The skin reaction was followed over time and the results were plotted according to the scale shown.
Skin photosensitivity is an important issue to be resolved in PDT. […] In a murine model, Foscan was administered at clinical doses (ref 109) and compared to compound 11 and a photo-immunoconjugate of compound 11. Skin photosensitivity was monitored over 4 days by observation according to a scale of 1-4 (FIG. 24).

With `CCC1=C(C)c2cc3[nH]c(c(C)c3CC)c(C#CCCCC(=O)ON3C(=O)CCC3=O)c3nc(c4c5[nH]c(cc1n2)c(C)c5C(=O)C4)[C@@H](CCC(=O)OCc1cc(OCCOCCOCCOC)c(OCCOCCOCCOC)c(OCCOCCOCCOC)c1)[C@@H]3C` [compound 11, Meso 5-Ethynylhexanoyl succinimido ester pyropheophorbide a-3,4,5-(triethylene glycolmonomethylether) benzyl ester], the results for the IC50 in the series with KB and in the series with SKOV3 were 1.2 ± 0.5 µM and 1.1 µM, respectively. In addition, in series [1], the blood clearance result was “faster than PPa”. In the series on SKOV3 tumour, the “tumour accumulation relative to the level of PPa” value is given as “about ⅓”. The “tumour regression compared to untreated (Saline) controls” value in the series with SKOV3 tumours (C6 PPa-PEG therapy: 0.2 ml iv day 1 and day 4, 1 mg/ml PIC or 0.5 mg/ml free PS, laser 20 minutes 0.5 W after 4 hrs, followed 6 weeks) is recorded as “no significant tumour regression”; with SKOV3 tumours (PPa-PEG only therapy: 0.2 ml iv (0.1 mg) day 1 and day 4, laser 20 minutes 0.5 W after 4 hrs, followed 3 weeks) it was “no significant tumour regression”. Also, in series [2], the skin photosensitivity result was “little or no skin sensitivity”.
